ChEMBL document CHEMBL5230104, “Systemic review on B-RafV600E mutation as potential therapeutic target for the treatment of cancer” (Eur J Med Chem, 2020)

Legend:
COLO 205 [1] = assay: Antiproliferative activity against human COLO 205 cells by CellTiter-Glo Luminescent Cell Viability Assay; format: functional, cell-based
A-375 [2] = assay: Antiproliferative activity against human A-375 cells by CellTiter-Glo Luminescent Cell Viability Assay; format: functional, cell-based
WM 266-4 = assay: Antiproliferative activity against human WM266-4 cells by CellTiter-Glo Luminescent Cell Viability Assay; format: functional, cell-based
COLO-829 = assay: Antiproliferative activity against human COLO-829 cells by CellTiter-Glo Luminescent Cell Viability Assay; format: functional, cell-based
COLO 205 [3] = assay: Antitumor activity against human COLO 205 cells xenografted in mouse model assessed as tumor growth inhibition at 30 mg/kg/day relative to control; format: functional; design: scale not given: the % may be the effect or the level left
A-375 [4] = assay: Antiproliferative activity against human A-375 cells harbouring B-Raf V600E mutant by SRB assay; format: functional, cell-based
HT-144 = assay: Antiproliferative activity against human HT-144 cells harbouring B-Raf V600E mutant by SRB assay; format: functional, cell-based
Malme-3M [5] = assay: Antiproliferative activity against human Malme-3M cells harbouring B-Raf V600E mutant by SRB assay; format: functional, cell-based
CHL-1 = assay: Antiproliferative activity against human CHL-1 cells harbouring wild type B-Raf by SRB assay; format: functional, cell-based
HMCB cell line = assay: Antiproliferative activity against human HMCB cells harbouring wild type B-Raf by SRB assay; format: functional, cell-based
SK-MEL-2 = assay: Antiproliferative activity against human SK-MEL-2 cells harbouring wild type B-Raf by SRB assay; format: functional, cell-based
HMV-2 cell line = assay: Antiproliferative activity against human HMV-2 cells harbouring B-Raf G469V mutant by SRB assay; format: functional, cell-based
A-375 [6] = assay: Antitumor activity against human A-375 cell xenografted in F344 nude rat model assessed as tumor growth inhibition by measuring T/C ratio at 9.7 mg/kg relative to control; format: functional
A-375 [7] = assay: Antitumor activity against human A-375 cell xenografted in F344 nude rat model assessed as tumor growth inhibition by measuring T/C ratio at 24.1 mg/kg relative to control; format: functional
Melanoma cell line = assay: Antiproliferative activity against human Melanoma cell line; format: functional, cell-based
M14 = assay: Antiproliferative activity against human M14 cells; format: functional, cell-based
[8] = biological target: Serine/threonine-protein kinase B-raf (Homo sapiens, UniProt P15056, V600E); assay: Inhibition of B-Raf V600E mutant (unknown origin)
A-375 [9] = assay: Antiproliferative activity against human A-375 cells assessed as inhibition of cell viability; format: functional, cell-based
Malme-3M [10] = assay: Antiproliferative activity against human Malme-3M cells assessed as inhibition of cell viability; format: functional, cell-based
SK-MEL-28 = assay: Antiproliferative activity against human SK-MEL-28 cells assessed as inhibition of cell viability; format: functional, cell-based
A-375 [11] = assay: Antitumor activity against human A-375 cells xenografted in mouse model assessed as tumor growth inhibition at 50 mg/kg, iv relative to control; format: functional; design: scale not given: the % may be the effect or the level left
[12] = In vivo inhibition of B-Raf in human A-375 cells xenografted in mouse model assessed as tumor growth inhibition; format: functional, cell-based

`CCCS(=O)(=O)Nc1ccc(F)c(C(=O)c2c[nH]c3ncc(Cl)cc23)c1F` [PLX-4720] showed an IC50 (COLO 205 [1]) of 310 nM, an IC50 (A-375 [2]) of 500 nM and an IC50 (WM 266-4) of 1500 nM. The IC50 (COLO-829) was 1700 nM and the Activity (COLO 205 [3]) was 90%.

For `N#Cc1c(Oc2ccc(F)c(NC(=O)Cc3cccc(C(F)(F)F)c3)c2)ccc2nc(NC(=O)C3CC3)sc12`, the IC50 (A-375 [4]) was 160 nM, the IC50 (HT-144) was 110 nM and the IC50 (Malme-3M [5]) was 50 nM. For the same molecule, the IC50 (CHL-1) was 2.07 nM, the IC50 (HMCB cell line) was 350 nM and the IC50 (SK-MEL-2) was 60 nM. It also gave an IC50 (HMV-2 cell line) of 200 nM, a T/C (A-375 [6]) of 2.1% and a T/C (A-375 [7]) of 12.1%.

`Cc1ccc(NC(=O)c2cccc(C(C)(C)C#N)c2)cc1Nc1ccc2ncn(C)c(=O)c2c1` gave an IC50 (Melanoma cell line) of 10000 nM and an IC50 (M14) of 100 nM.

Work on `CN(C)CCOc1ccc(-c2n/c(=c3\ccc4c(c3)CCC=4N=O)c(=C3C=CNC=C3)[nH]2)cc1` yielded an IC50 [8] of […], an IC50 (A-375 [9]) of 370 nM and an IC50 (Malme-3M [10]) of 150 nM. The IC50 (SK-MEL-28) was 120 nM and the Activity (A-375 [11]) was 80%.

In the case of `OCCn1cc(-c2ccc3c(c2)CC/C3=N/O)c(-c2ccncc2)n1`, the IC50 [12] is reported as 59 nM.
